# Earlier results in patent publication US9192588B2, “Method for producing a zeaxanthin-enriched chicken egg” (JX NIPPON OIL & ENERGY CORPORATION, priority 2011, dated 2015).
# Read-outs that look alike come from different tables or passages of the source.
# Conditions: human
# [1] = twice the initial dose for further 6 months
structure (smiles),measurement,setting,value
"CC1=C(/C=C/C(C)=C/C=C/C(C)=C/C=C/C=C(C)/C=C/C=C(C)/C=C/C2=C(C)C[C@@H](O)CC2(C)C)C(C)(C)C[C@H](O)C1 [chemically synthesized zeaxanthin, zeaxanthin]",blood zeaxanthin concentration after intake,12.6 mg every day for 6 months,0.85 µM
same,proportion of the increase to the intake,12.6 mg every day for 6 months,0.06 μM/(mg/Day)
same,initial blood zeaxanthin concentration,before intake,0.04 µM
same,blood zeaxanthin concentration after intake,[1],1.09 µM
same,proportion of the increase to the intake,[1],0.01 μM/(mg/Day)
